The values that follow come from US20220323455A1, “FUSED HETEROCYCLIC DERIVATIVES AS ANTIVIRAL AGENTS” (priority 2019, published 2022).

pEC50: −log10 of the molar value.

The subject of one test is HBV. The test is described as follows: HBV replication inhibition assay (BDNA assay) in HepG2.2.15 cells. The format is cell-based, Hepatitis B virus. The note with it: 6 days, encapsidated HBV DNA in supernatant. The method in brief: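 HepG2.2.15 cells were dosed with serially diluted compound (0.5% DMSO), with compound and medium renewed at day 3. Day-6 supernatants were DNase-treated and proteinase K-lysed, and encapsidated HBV DNA was quantified by branched-DNA assay. Percent inhibition was set against DMSO controls and EC50 obtained by nonlinear fit.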
Turning to `C[C@@H]1Cc2nn3c(c2CN1C(=O)Nc1ccnc(C(F)F)c1F)C(F)(F)CCC(O)(CF)C3` (single isomer, unassigned) [Example 85, (3R,8R*)—N-(2-(Difluoromethyl)-3-fluoropyridin-4-yl)-11,11-difluoro-8-(fluoromethyl)-8-hydroxy-3-methyl-3,4,8,9,10,11-hexahydro-1H-pyrido[4′,3′:3,4]pyrazolo[1,5-a]azepine-2(7H)-carboxamide], the pEC50 was 7.35. `COC(=O)NCC1CCC(F)(F)c2c3c(nn2C1)C[C@@H](C)N(C(=O)Nc1ccc(F)c(C#N)c1)C3` (single isomer, unassigned) [Example 105, methyl (((3R,8R*)-2-((3-cyano-4-fluorophenyl)carbamoyl)-11,11-difluoro-3-methyl-2,3,4,7,8,9,10,11-octahydro-1H-pyrido[4′,3′:3,4]pyrazolo[1,5-a]azepin-8-yl)methyl)carbamate]: the pEC50 was 8.52. Still for that read-out and setting: with `COC(=O)NCC1CCC(F)(F)c2c3c(nn2C1)C[C@@H](C)N(C(=O)Nc1ccnc(Br)c1F)C3` (single isomer, unassigned) [Example 109, Methyl (((3R,8S*)-2-((2-bromo-3-fluoropyridin-4-yl)carbamoyl)-11,11-difluoro-3-methyl-2,3,4,7,8,9,10,11-octahydro-1H-pyrido[4′,3′:3,4]pyrazolo[1,5-a]azepin-8-yl)methyl)carbamate] the figure was 7.49.

On to `C[C@@H]1Cc2nn3c(c2CN1C(=O)Nc1ccc(F)c(C#N)c1)C(F)(F)CCC(O)(CF)C3` (single isomer, unassigned) [Example 86, (3R,8S*)—N-(3-Cyano-4-fluorophenyl)-11,11-difluoro-8-(fluoromethyl)-8-hydroxy-3-methyl-3,4,8,9,10,11-hexahydro-1H-pyrido[4′,3′:3,4]pyrazolo[1,5-a]azepine-2(7H)-carboxamide], for which the negative logarithm of the EC50 (pEC50) was 7.70.

For the molecule `C[C@@H]1Cc2nn3c(c2CN1C(=O)Nc1ccnc(C(F)F)c1F)C(F)(F)CCC(F)(CO)C3` (single isomer, unassigned) [Example 113, (3R,8S*)—N-(2-(Difluoromethyl)-3-fluoropyridin-4-yl)-8,11,11-trifluoro-8-(hydroxymethyl)-3-methyl-3,4,8,9,10,11-hexahydro-1H-pyrido[4′,3′:3,4]pyrazolo[1,5-a]azepine-2(7H)-carboxamide], the pEC50 is 6.81. On the same count and under the same terms, next, `O=C(Nc1ccc(F)c(C(F)(F)F)c1)N1CCc2nn3c(c2C1)C(F)(F)CCC(CO)C3` (single isomer, unassigned) [Example 20, (S*)-11,11-Difluoro-N-(4-fluoro-3-(trifluoromethyl)phenyl)-8-(hydroxymethyl)-3,4,8,9,10,11-hexahydro-1H-pyrido[4′,3′:3,4]pyrazolo[1,5-a]azepine-2(7H)-carboxamide]: 8.40; `C[C@@H]1Cc2nn3c(c2CN1C(=O)Nc1ccnc(C(F)F)c1F)C(F)(F)CCC(CO)C3` (single isomer, unassigned) [Example 78, (3R,8S*)—N-(2-(Difluoromethyl)-3-fluoropyridin-4-yl)-11,11-difluoro-8-(hydroxymethyl)-3-methyl-3,4,8,9,10,11-hexahydro-1H-pyrido[4′,3′:3,4]pyrazolo[1,5-a]azepine-2(7H)-carboxamide]: 7.52; `C[C@@H]1Cc2nn3c(c2CN1C(=O)Nc1ccc(F)c(C#N)c1)C(F)(F)CCC(C(C)(C)O)C3` (single isomer, unassigned) [Example 103, (3R,8R*)—N-(3-Cyano-4-fluorophenyl)-11,11-difluoro-8-(2-hydroxypropan-2-yl)-3-methyl-3,4,8,9,10,11-hexahydro-1H-pyrido[4′,3′:3,4]pyrazolo[1,5-a]azepine-2(7H)-carboxamide]: 7.74.

The same test, now with this note: Hepatitis B virus, HepG2.2.15, 144 h, 6 days, encapsidated HBV DNA in supernatant.
On to `CC1Cc2nn3c(c2CN1C(=O)Nc1ccc(F)c(C#N)c1)C(F)(F)C[C@H](CO)CC3` (stereo partly drawn) [Example 131], for which the pEC50 was 8.52.

By pEC50 is commonly meant the negative decadic logarithm of the EC50, by convention in mol/L.
